Source: patent US7125889B2, “Treating of cardiovascular and related pathologies” (Medicure International Inc., priority 1999, dated 2006)
Several values for one entry are separate records, joined by “and”; a condition that tells them apart may be missing. Identical values can stand only once.

What was measured:
[1] = tested on: isolated rat hearts; experiment: Ischemia reperfusion in isolated rat hearts (Langendorff), left ventricular pressures; details: for % recovery (LVDP) / LVEDP / LVSP: 30 min ischemia, 60 min reperfusion; for % recovery (LVDP) / LVEDP / LVSP / LVDP (A) / LVDP (B): P-5-P 15 μM; for LVDP (A): after ischemia (30 min ischemia, 60 min reperfusion); for LVDP (B): before ischemia
Experimental: Male Sprague-Dawley rats weighing 250–300 g are anaesthetized with a mixture of ketamine (60 mg/kg) and xylazine (10 mg/kg).
The left ventricular end diastolic pressure (LVEDP) is adjusted at 10 mmHg at the beginning of the experiment. […] All hearts are stabilized for a period of 30 mm and then randomly distributed into nine different experimental groups (n=5–8 per group). The experimental groups are defined as follows: • 1) Control group (control hearts are further perfused for 90 minutes for a total of […] of continuous perfusion); • 2) Ischemia reperfusion group (Ischemia reperfusion hearts are made globally ischemic by stopping the coronary flow completely for 30 mm and then the hearts are reperfused for 60 mm); • 3) P-5-P (15 μM) treated group; • 4) captopril (100 μM) treated group; • 5) verapamil (0.01 μM)) treated group; […]) treated group; […]) treated group; • 8) P-5-P+captopril treated group; • 9) P-5-P+verapamil treated group; • 10) P-5-P+propranolol treated group; • 11) P-5-P+PPADS treated group.
Drug treatment is started 10 min before global ischemia followed by 30 min global ischemia and 60 min reperfusion. At the end of some experiments, the hearts are quickly freeze-clamped with a liquid nitrogen precooled Wollenberger tong. Rats are housed in clear cages in a temperature and humidity controlled room on a 12 hr light-dark cycle. Food and water are supplied ad libitum.

[2] = tested on: rat model of coronary ligation; experiment: Coronary artery ligation (myocardial infarction), mortality; format: in vivo; details: 21 days after coronary occlusion; once daily by gastric tube: P-5-P 10 mg/kg, captopril 100 mg/kg, propranolol 50 mg/kg, verapamil 25 mg/kg, aspirin 100 mg/kg; untreated 35%
Source text: The animals were anesthetized with ether, the skin incised along the left sternal border, the fourth rib cut proximal to the sternum, and retractors inserted. The pericardial sac was perforated and the heart was exteriorized through the intercostal space. The left coronary artery was ligated about 2 mm from its origin with a 6–0 silk suture and the heart was repositioned in the chest.
Rats are anesthetized with 1–5% isoflurane in 100% O2 (2 L flow rate). The skin is incised along the left sterna border and the 4th rib is cut proximal to the sternum and a retractor inserted. The pericardial sac is opened and the heart externalized. The left anterior descending coronary artery is ligated approximately 2 mm from its origin on the aorta using a 6–0 silk suture. The heart is then repositioned in the chest and the incision closed via purse-string sutures.
Sham operated rats undergo identical treatment except that the artery is not ligated. […] Unless indicated in the text, the experimental animals showing infarct size >30% of the left ventricle are used in this study. All animals are allowed to recover, allowed to receive food and water ad libitum, and are maintained for a period of 21 days for Electrocardiogram (ECG), hemodynamic, and histological assessment.
While the complete healing of the scar occurs within 3 weeks of the coronary occlusion, mild, moderate and severe stages of congestive heart failure have been reported to occur at 4, 8 and 16 weeks after ligation.
The rats are housed in clear cages in a temperature and humidity controlled room, on a 12 hour light-dark cycle. Food and water are supplied ad libitum. After surgery, rats are randomly assigned to treatment or non-treatment in both sham and experimental groups. Randomization of animals was performed and treatment begins 1 hour after coronary occlusion and continues for 21 days. The total duration of experiments in each case is 21 days. The groups are as follows: • 1) sham operated; • 2) coronary artery ligated (treatment with equal volumes of saline); • 3) coronary artery ligated (treated with 10 mg/kg P-5-P ); • 4) coronary artery ligated (treated with 100 mg/kg captopril); • 5) coronary artery ligated (treated with 50 mg/kg propranolol); • 6) coronary artery ligated (treated with 100 mg/kg aspirin); • 7) coronary artery ligated (treated with 25 mg/kg verapamil); • 8) coronary artery ligated (treated with 10 mg/kg P-5-P+100 mg/kg captopril); • 9) coronary artery ligated (treated with 10 mg/kg P-5-P+50 mg/kg propranolol); • 10) coronary artery ligated (treated with 10 mg/kg P-5-P+100 mg/kg aspirin); • 11) coronary artery ligated (treated with 10 mg/kg P-5-P+25 mg/kg verapamil). […]

[3] = tested on: rat model of coronary ligation; experiment: Hemodynamic changes, heart and scar weight after coronary artery ligation; format: in vivo; details: 21 days after coronary occlusion
Experimental: The rats are housed in clear cages in a temperature and humidity controlled room, on a 12 hour light-dark cycle. Food and water are supplied ad libitum. After surgery, rats are randomly assigned to treatment or non-treatment in both sham and experimental groups. Randomization of animals was performed and treatment begins 1 hour after coronary occlusion and continues for 21 days. The total duration of experiments in each case is 21 days. The groups are as follows: • 1) sham operated; • 2) coronary artery ligated (treatment with equal volumes of saline); • 3) coronary artery ligated (treated with 10 mg/kg P-5-P ); • 4) coronary artery ligated (treated with 100 mg/kg captopril); • 5) coronary artery ligated (treated with 50 mg/kg propranolol); • 6) coronary artery ligated (treated with 100 mg/kg aspirin); • 7) coronary artery ligated (treated with 25 mg/kg verapamil); • 8) coronary artery ligated (treated with 10 mg/kg P-5-P+100 mg/kg captopril); • 9) coronary artery ligated (treated with 10 mg/kg P-5-P+50 mg/kg propranolol); • 10) coronary artery ligated (treated with 10 mg/kg P-5-P+100 mg/kg aspirin); • 11) coronary artery ligated (treated with 10 mg/kg P-5-P+25 mg/kg verapamil).
P-5-P (10 mg/kg), captopril (100 mg/kg), propranolol (50 mg/kg), verapamil (25 mg/kg) and aspirin (100 mg/kg) were administered once daily by gastric tube.
The animals are prepared and grouped as described in Example 10 and were anesthetized with a solution of ketamine/xylazine which was injected. To maintain adequate ventilation, the trachea was intubated; the right carotid artery was exposed for introducing a microtip pressure transducer (model SPR-249, Millar, Houston, Tex.) into the left ventricle. The catheter was secured with a silk ligature around the artery, and various hemodynamic parameters such as left ventricular systolic pressure (LVSP), left ventricular end diastolic pressure (LVEDP), rate of contraction (+dp/dt), rate of relaxation (−dP/dt) were recorded and calculated on a computer system using a Acknowledge 3.1 software.
Once the hemodynamic parameters were measured the animals were sacrificed and hearts removed for measurement of heart weight, right ventricular weight, left ventricular weight and scar weight. Because complete healing of the scar in rats after coronary occlusion requires approximately 3 weeks, scar weight were measured only at 21 days.

[4] = tested on: 10% sucrose induced hypertension in rats; experiment: 10% sucrose induced hypertension, systolic blood pressure (tail cuff); format: in vivo, rat
Source text: Zein et al., in their publication entitled Sugar-Induced Blood Pressure Elevations Over the Lifespan of Three Substrains of Wistar Rats in Am. Coll. […] Hulman et al. in their publication entitled The Effect of Excess Dietary Sucrose on Growth, Blood Pressure, and Metabolism in Developing Sprague-Dawley Rats in Pediatr. […] Reaven et al., in their publication entitled Sugar-Induced Hypertension in Sprague-Dawley Rats in Am.
The blood pressure is monitored using the tail cuff method. The SBP is detected on an amplifier and the Acknowledge™ computer software program is used to determine the calculations.
The effect of concurrent administration of pyridoxal-5′-phosphate and captopril or verapamil on systolic blood pressure (marker of hypertension) in 10% sucrose induced hypertension in rats is determined.

| SMILES | % recovery (LVDP) ([1]; Propranolol 3 μM) [%] | LVEDP ([1]; Propranolol 3 μM) [mmHg] | LVSP ([1]; Propranolol 3 μM) [mmHg] | LVDP (A) ([1]; Propranolol 3 μM) | LVDP (B) ([1]; Propranolol 3 μM) | % recovery (LVDP) ([1]; PPADS 100 μM) | LVEDP ([1]; PPADS 100 μM) [mmHg] | LVSP ([1]; PPADS 100 μM) [mmHg] | LVDP (A) ([1]; PPADS 100 μM) | LVDP (B) ([1]; PPADS 100 μM) | % recovery (LVDP) ([1]; Verapamil 0.01 μM) [%] | LVEDP ([1]; Verapamil 0.01 μM) [mmHg] | LVSP ([1]; Verapamil 0.01 μM) [mmHg] | LVDP (A) ([1]; Verapamil 0.01 μM) | LVDP (B) ([1]; Verapamil 0.01 μM) | mortality rate [2] | % recovery (LVDP) ([1]; Captopril 100 μM) [%] | LVEDP ([1]; Captopril 100 μM) [mmHg] | LVSP ([1]; Captopril 100 μM) [mmHg] | LVDP (A) ([1]; Captopril 100 μM) | also measured |
| --- | --- | --- | --- | --- | --- | --- | --- | --- | --- | --- | --- | --- | --- | --- | --- | --- | --- | --- | --- | --- | --- |
| CC(C)NCC(O)COc1cccc2ccccc12 (stereo not drawn) [Propranolol, propranolol, reference compound] | 74 ± 4.9 | 27 ± 6.6 | 72 ± 15.1 | 45 ± 9.7 | 61 ± 10.8 |  |  |  |  |  |  |  |  |  |  |  |  |  |  |  | % recovery (LVDP) ([1]; Propranolol 3 μM, listed as propranolol): 74% |
| Cc1nc(N=Nc2ccc(S(=O)(=O)O)cc2S(=O)(=O)O)c(COP(=O)(O)O)c(C=O)c1O [PPADS, pyridoxal phosphate-6-azophenyl-2′,4′-disulphonic acid, reference compound] |  |  |  |  |  | 61% and 61 ± 4.8 % | 57 ± 6.3 | 115 ± 11.5 | 58 ± 13.6 | 92 ± 15.2 |  |  |  |  |  |  |  |  |  |  |  |
| COc1ccc(CCN(C)CCCC(C#N)(c2ccc(OC)c(OC)c2)C(C)C)cc1OC (stereo not drawn) [Verapamil, verapamil, reference compound] |  |  |  |  |  |  |  |  |  |  | 43 ± 6.6 | 55 ± 5.1 | 78 ± 7.7 | 23 ± 4.5 | 54 ± 9.1 | 25% |  |  |  |  | % recovery (LVDP) ([1]; Verapamil 0.01 μM, listed as verapamil): 43% |
| Cc1ncc(COP(=O)(O)O)c(C=O)c1O [Example P5P, pyridoxal-5′-phosphate] | 78.2 ± 3.3 | 35 ± 4.8 | 98 ± 8.2 | 63 ± 5 | 80 ± 3.8 | 78.2 ± 3.3% | 35 ± 4.8 | 98 ± 8.2 | 63 ± 5 | 80 ± 3.8 | 78.2 ± 3.3 | 35 ± 4.8 | 98 ± 8.2 | 63 ± 5 | 80 ± 3.8 | 15% and 10% | 78.2 ± 3.3 | 35 ± 4.8 | 98 ± 8.2 | 63 ± 5 | % recovery (LVDP) ([1]; Captopril 100 μM, listed as P-5-P): 78.2%; % recovery (LVDP) ([1]; PPADS 100 μM, listed as P-5-P): 78.2%; % recovery (LVDP) ([1]; Propranolol 3 μM, listed as P-5-P): 78.2%; % recovery (LVDP) ([1]; Verapamil 0.01 μM, listed as P-5-P): 78.2%; LVDP (B) ([1]; Captopril 100 μM): 80 ± 3.8; benefit in ischemia reperfusion injury ([1]; given alone, summary of Tables I-IV): significant benefit; effect on scar weight ([3]; FIGS. 5-8): significant beneficial effect; effect on rate of contraction (+dP/dt) ([3]; FIGS. 9-12): significant beneficial effect; effect on left ventricular end diastolic pressure (LVEDP) ([3]; FIGS. 17-20): significant beneficial effect; effect on whole heart weight ([3]; FIGS. 21-24): significant beneficial effect; effect on right ventricular weight ([3]; FIGS. 25-28): significant beneficial effect; effect on systolic blood pressure ([4]; treatment 1 week prior to inducing hypertension with a sucrose diet, FIGS. 29A, 29B): significant beneficial effect; effect on systolic blood pressure ([4]; treatment the same day as inducing hypertension with a sucrose diet, FIGS. 30A, 30B): significant beneficial effect; effect on systolic blood pressure ([4]; treatment two weeks after inducing hypertension with a sucrose diet, FIGS. 31A, 31B): significant beneficial effect |
| CC(=O)Oc1ccccc1C(=O)O [aspirin] |  |  |  |  |  |  |  |  |  |  |  |  |  |  |  | 25% |  |  |  |  |  |
| C[C@H](CS)C(=O)N1CCC[C@H]1C(=O)O [Captopril, captopril, reference compound] |  |  |  |  |  |  |  |  |  |  |  |  |  |  |  | 15% | 61.4 ± 5.2 | 54 ± 6.7 | 101 ± 14.6 | 47 ± 8.6 | % recovery (LVDP) ([1]; Captopril 100 μM, listed as captopril): 61.4%; LVDP (B) ([1]; Captopril 100 μM): 78 ± 10.9 |
